Active and inactive are the calls of the source. No cut-off for these calls is given here.
Legend:
Mus musculus [1] = assay: Antiinflammatory activity in DSS-induced ulcerative colitis mouse model assessed as reduction in DAI score at 200 mg/kg, po administered for 10 consecutive days; format: functional, organism-based; settings: time 10.0 day
Mus musculus [2] = assay: Antiinflammatory activity in DSS-induced ulcerative colitis mouse model assessed as rescue of colon length shortening at 200 mg/kg, po administered for 10 consecutive days; format: functional, organism-based; settings: time 10.0 day
Mus musculus [3] = assay: Antiinflammatory activity in DSS-induced ulcerative colitis mouse model assessed as reduction in MPO activity at 200 mg/kg, po administered for 10 consecutive days; format: functional, organism-based; settings: time 10.0 day
Mus musculus [4] = assay: Antiinflammatory activity in DSS-induced ulcerative colitis mouse model assessed as protection against colon destruction at 200 mg/kg, po administered for 10 consecutive days by HE staining based histopathological analysis; format: functional, organism-based; settings: time 10.0 day
Mus musculus [5] = assay: Antiinflammatory activity in DSS-induced ulcerative colitis mouse model assessed as protection against inflammation of colons at 200 mg/kg, po administered for 10 consecutive days by HE staining based histopathological analysis; format: functional, organism-based; settings: time 10.0 day
Mus musculus [6] = assay: Induction of Treg cell differentiation in DSS- induced ulcerative colitis mouse model assessed as number of Treg cells in colonic lamina proprias at 200 mg/kg, po administered for 10 consecutive days by flow cytometry analysis (Rvb= 7.97%); format: functional; settings: time 10 day
Mus musculus [7] = assay: Induction of Treg cell differentiation in DSS- induced ulcerative colitis mouse model assessed as number of Treg cells in mesenteric lymph nodes at 200 mg/kg, po administered for 10 consecutive days by flow cytometry analysis (Rvb= 7.52%); format: functional; settings: time 10 day
Mus musculus [8] = assay: Induction of Treg cell differentiation in DSS- induced ulcerative colitis mouse model assessed as number of Treg cells in spleens at 200 mg/kg, po administered for 10 consecutive days by flow cytometry analysis (Rvb= 6.49%); format: functional; settings: time 10 day

Structure (SMILES): Nc1ccc(O)c(C(=O)O)c1 [MESALAMINE]
- Activity (Mus musculus [1]): Active
- Activity (Mus musculus [2]): Active
- Activity (Mus musculus [3]): Active
- Activity (Mus musculus [4]): Active
- Activity (Mus musculus [5]): Active
- Activity (Mus musculus [6]): 9.59%
- Activity (Mus musculus [7]): 7.7%
- Activity (Mus musculus [8]): 5.9%

Reference: ChEMBL document CHEMBL4823244, “Synthesis of norisoboldine derivatives and bioactivity assay for inducing the generation of regulatory T cells” (Bioorg Med Chem Lett, 2021)
